From patent publication US20060069132A1, “Azolecarboxamide herbicides” (priority 2004, published 2006)
Where two headings read alike, the source gives them in different places.

Legend:
large crabgrass = experiment: Test A pre-/postemergence herbicide test; format: in vivo, Digitaria sanguinalis; conditions: for pest or weed control at 500 g/ha / pest or weed control at 2000 g/ha: Digitaria sanguinalis, 240 h
Summary of the method: (§1)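 Plants are held in greenhouse about ten days after treatment, then compared with untreated controls and scored 0 (no effect) to 100 (complete control). Preemergence dosing is a directed soil spray on sown sandy loam; postemergence dosing is spray to runoff at 2–10 cm height.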

giant foxtail = experiment: Test A pre-/postemergence herbicide test; format: in vivo, Setaria faberi; conditions: for pest or weed control at 500 g/ha / pest or weed control at 2000 g/ha: Setaria faberi, 240 h
Summary of the method: as §1

cocklebur = experiment: Test B pre-/postemergence herbicide test; format: in vivo, Xanthium strumarium; conditions: for pest or weed control at 125 g/ha / pest or weed control at 500 g/ha: Xanthium strumarium
Summary of the method: (§2)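 Response was scored visually 13 to 15 days after treatment against untreated greenhouse controls, 0 meaning no effect and 100 complete control. Formulations (solvent mixture plus surfactant) went onto soil after planting, onto foliage of 1- to 4-leaf plants, and onto 2-leaf plants in a flooded paddy set including rice and barnyardgrass.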

lambsquarters = experiment: Test B pre-/postemergence herbicide test; format: in vivo, Chenopodium album; conditions: for pest or weed control at 125 g/ha / pest or weed control at 500 g/ha: Chenopodium album, 336 h
Summary of the method: as §2

[1] = Postemergence, 500 g ai/ha, 0 to 100 scale, 0 no effect, 100 complete control
[2] = Postemergence, 2000 g ai/ha, 0 to 100 scale, 0 no effect, 100 complete control
[3] = Preemergence, 500 g ai/ha, visual rating, 0 to 100 scale (0 no effect, 100 complete control)
[4] = Preemergence, 2000 g ai/ha, 0 to 100 scale, 0 no effect, 100 complete control
[5] = Postemergence, 500 g ai/ha, visual rating after 13 to 15 days, scale 0 (no effect) to 100 (complete control)
[6] = Preemergence, 500 g ai/ha, scale 0 to 100
[7] = postemergence, 125 g ai/ha, visual rating, scale 0 (no effect) to 100 (complete control)
[8] = preemergence, 125 g ai/ha, 0 to 100 scale, 0 is no effect, 100 is complete control
[9] = post-emergence, Postemergence, 2000 g ai/ha, 0 to 100 scale, 0 no effect, 100 complete control, read-out: Plant response rating, Crabgrass, Large
[10] = pre-emergence, Preemergence, 500 g ai/ha, visual rating, 0 to 100 scale (0 no effect, 100 complete control), read-out: Crabgrass, Large plant response rating
[11] = post-emergence, Postemergence, 2000 g ai/ha, 0 to 100 scale, 0 no effect, 100 complete control, read-out: Plant response rating, Foxtail, Giant
[12] = pre-emergence, Preemergence, 500 g ai/ha, visual rating, 0 to 100 scale (0 no effect, 100 complete control), read-out: Foxtail, Giant plant response rating
[13] = pre-emergence, preemergence, 125 g ai/ha, 0 to 100 scale, 0 is no effect, 100 is complete control, read-out: Plant response rating, Lambsquarters
[14] = Preemergence, 2000 g ai/ha, visual rating, 0 to 100 scale (0 no effect, 100 complete control)
[15] = preemergence, 500 g ai/ha, visual injury, 0 to 100 scale (0 no effect, 100 complete control)
[16] = 125 g ai/ha, 0 = no effect, 100 = complete control, preemergence
[17] = 500 g ai/ha, visual rating, 0 = no effect, 100 = complete control, preemergence
[18] = postemergence, 500 g ai/ha, scale 0 to 100, 0 is no effect, 100 is complete control
[19] = 500 g ai/ha, visual rating 0-100, 0 no effect, 100 complete control, preemergence

CCOC(=O)c1cccc(NC(=O)c2cc(C(C)(C)C)nn2CCF)c1 [Compound 79]
Plant response rating, Crabgrass, Large (large crabgrass; [1]): 20
Plant response rating, Crabgrass, Large (large crabgrass; [2]): 55
Crabgrass, Large plant response rating (large crabgrass; [3]): 50
Crabgrass, Large plant response rating (large crabgrass; [4]): 55
Plant response rating, Foxtail, Giant (giant foxtail; [1]): 30
Plant response rating, Foxtail, Giant (giant foxtail; [2]): 40
Foxtail, Giant plant response rating (giant foxtail; [3]): 10
Foxtail, Giant plant response rating (giant foxtail; [4]): 40
Plant response rating, Cocklebur (cocklebur; [5]): 80
Cocklebur plant response rating (cocklebur; [6]): 0
Cocklebur plant response rating (cocklebur; [7]): 80
Plant response rating, Cocklebur (cocklebur; [8]): 0
Plant response rating, Lambsquarters (lambsquarters; [5]): 80
Lambsquarters plant response rating (lambsquarters; [7]): 70
Plant response rating, Lambsquarters (lambsquarters; [8]): 0

CCn1nc(C(C)(C)C)cc1C(=O)Nc1cccc(C(=O)NCC(F)(F)F)c1 [Compound 43, 3-(1,1-dimethylethyl)-1-ethyl-N-[3-[[(2,2,2-trifluoroethyl)amino]carbonyl]-phenyl]-1H-pyrazole-5-carboxamide]
pest or weed control at 500 g/ha (large crabgrass; post-emergence, Postemergence, 500 g ai/ha, 0 to 100 scale, 0 no effect, 100 complete control, read-out: Plant response rating, Crabgrass, Large): 65%
pest or weed control at 2000 g/ha (large crabgrass; [9]): 90%
pest or weed control at 500 g/ha (large crabgrass; [10]): 75%
pest or weed control at 2000 g/ha (large crabgrass; pre-emergence, Preemergence, 2000 g ai/ha, 0 to 100 scale, 0 no effect, 100 complete control, read-out: Crabgrass, Large plant response rating): 90%
pest or weed control at 500 g/ha (giant foxtail; post-emergence, Postemergence, 500 g ai/ha, 0 to 100 scale, 0 no effect, 100 complete control, read-out: Plant response rating, Foxtail, Giant): 70%
pest or weed control at 2000 g/ha (giant foxtail; [11]): 70%
pest or weed control at 500 g/ha (giant foxtail; [12]): 55%
pest or weed control at 2000 g/ha (giant foxtail; pre-emergence, Preemergence, 2000 g ai/ha, 0 to 100 scale, 0 no effect, 100 complete control, read-out: Foxtail, Giant plant response rating): 100%
pest or weed control at 125 g/ha (cocklebur; post-emergence, Postemergence, 125 g ai/ha, scale 0 (no effect) to 100 (complete control), read-out: Cocklebur plant response rating): 10%
pest or weed control at 500 g/ha (cocklebur; post-emergence, Postemergence, 500 g ai/ha, visual rating after 13 to 15 days, scale 0 (no effect) to 100 (complete control), read-out: Plant response rating, Cocklebur): 90%
pest or weed control at 500 g/ha (cocklebur; pre-emergence, Preemergence, 500 g ai/ha, scale 0 to 100, read-out: Cocklebur plant response rating): 10%
pest or weed control at 125 g/ha (lambsquarters; post-emergence, Postemergence, 125 g ai/ha, scale 0 (no effect) to 100 (complete control), read-out: Lambsquarters plant response rating): 90%
pest or weed control at 500 g/ha (lambsquarters; post-emergence, Postemergence, 500 g ai/ha, visual rating after 13 to 15 days, scale 0 (no effect) to 100 (complete control), read-out: Plant response rating, Lambsquarters): 90%
pest or weed control at 500 g/ha (lambsquarters; pre-emergence, Preemergence, 500 g ai/ha, scale 0 to 100, read-out: Lambsquarters plant response rating): 100%
pest or weed control at 125 g/ha (lambsquarters; [13]): 90%

CCn1nc(C(C)(C)C)cc1C(=O)Nc1cc(C(=O)OC)ccn1 [Compound 151, methyl 2-[[[3-(1,1-dimethylethyl)-1-ethyl-1H-pyrazol-5-yl]carbonyl]amino]-4-pyridinecarboxylate]
pest or weed control at 500 g/ha (large crabgrass; post-emergence, Postemergence, 500 g ai/ha, 0 to 100 scale, 0 no effect, 100 complete control, read-out: Crabgrass, Large plant response rating): 5%
pest or weed control at 2000 g/ha (large crabgrass; [9]): 10%
pest or weed control at 500 g/ha (large crabgrass; [10]): 0%
pest or weed control at 2000 g/ha (large crabgrass; pre-emergence, Preemergence, 2000 g ai/ha, visual rating, 0 to 100 scale (0 no effect, 100 complete control), read-out: Crabgrass, Large plant response rating): 0%
pest or weed control at 500 g/ha (giant foxtail; post-emergence, Postemergence, 500 g ai/ha, 0 to 100 scale, 0 no effect, 100 complete control, read-out: Foxtail, Giant plant response rating): 10%
pest or weed control at 2000 g/ha (giant foxtail; [11]): 10%
pest or weed control at 500 g/ha (giant foxtail; [12]): 0%
pest or weed control at 2000 g/ha (giant foxtail; pre-emergence, Preemergence, 2000 g ai/ha, visual rating, 0 to 100 scale (0 no effect, 100 complete control), read-out: Foxtail, Giant plant response rating): 0%
pest or weed control at 125 g/ha (cocklebur; post-emergence, postemergence, 125 g ai/ha, visual rating, scale 0 (no effect) to 100 (complete control), read-out: Cocklebur plant response rating): 0%
pest or weed control at 500 g/ha (cocklebur; post-emergence, postemergence, 500 g ai/ha, visual rating, scale 0 (no effect) to 100 (complete control), read-out: Cocklebur plant response rating): 0%
pest or weed control at 500 g/ha (cocklebur; pre-emergence, 500 g ai/ha, visual rating 0-100, 0 no effect, 100 complete control, read-out: Plant response rating, Cocklebur): 0%
pest or weed control at 125 g/ha (cocklebur; pre-emergence, preemergence, 125 g ai/ha, 0 to 100 scale, 0 is no effect, 100 is complete control, read-out: Plant response rating, Cocklebur): 0%
pest or weed control at 125 g/ha (lambsquarters; post-emergence, postemergence, 125 g ai/ha, visual rating, scale 0 (no effect) to 100 (complete control), read-out: Lambsquarters plant response rating): 0%
pest or weed control at 500 g/ha (lambsquarters; post-emergence, postemergence, 500 g ai/ha, visual rating, scale 0 (no effect) to 100 (complete control), read-out: Lambsquarters plant response rating): 50%
pest or weed control at 500 g/ha (lambsquarters; pre-emergence, 500 g ai/ha, visual rating 0-100, 0 no effect, 100 complete control, read-out: Plant response rating, Lambsquarters): 0%
pest or weed control at 125 g/ha (lambsquarters; [13]): 0%

CCn1nc(C(C)(C)C)cc1C(=O)Nc1cccc(C(=O)NOC)c1 [Compound 67]
Plant response rating, Crabgrass, Large (large crabgrass; [1]): 20
Plant response rating, Crabgrass, Large (large crabgrass; [2]): 20
Crabgrass, Large plant response rating (large crabgrass; [3]): 15
Crabgrass, Large plant response rating (large crabgrass; [4]): 55
Plant response rating, Foxtail, Giant (giant foxtail; [1]): 10
Plant response rating, Foxtail, Giant (giant foxtail; [2]): 20
Foxtail, Giant plant response rating (giant foxtail; [3]): 0
Foxtail, Giant plant response rating (giant foxtail; [4]): 30
Plant response rating, Cocklebur (cocklebur; [5]): 70
Cocklebur plant response rating (cocklebur; [6]): 0
Cocklebur plant response rating (cocklebur; [7]): 0
Plant response rating, Cocklebur (cocklebur; [8]): 0
Plant response rating, Lambsquarters (lambsquarters; [5]): 60
Lambsquarters plant response rating (lambsquarters; [7]): 40
Plant response rating, Lambsquarters (lambsquarters; [8]): 0

CCn1nc(C(C)(C)C)cc1C(=O)Nc1cccc(C(=O)N2CC=CC2)c1 [Compound 286]
Crabgrass, Large plant response rating (large crabgrass; [1]): 20
Plant response rating, Crabgrass, Large (large crabgrass; [2]): 25
Crabgrass, Large plant response rating (large crabgrass; [14]): 70
Crabgrass, Large plant response rating (large crabgrass; [15]): 15
Foxtail, Giant plant response rating (giant foxtail; [1]): 35
Plant response rating, Foxtail, Giant (giant foxtail; [2]): 75
Foxtail, Giant plant response rating (giant foxtail; [14]): 100
Foxtail, Giant plant response rating (giant foxtail; [15]): 60
Cocklebur plant response rating (0 to 100 scale) (cocklebur; [16]): 0
Plant response rating, Cocklebur (cocklebur; [17]): 0
Cocklebur plant response rating (cocklebur; [7]): 10
Cocklebur plant response rating (cocklebur; [18]): 20
Lambsquarters plant response rating (0 to 100 scale) (lambsquarters; [16]): 100
Plant response rating, Lambsquarters (lambsquarters; [17]): 100
Lambsquarters plant response rating (lambsquarters; [7]): 10
Lambsquarters plant response rating (lambsquarters; [18]): 70

C=CCn1nc(C(C)(C)C)cc1C(=O)Nc1cccc(C(C)=NO)c1 [Compound 117]
Crabgrass, Large plant response rating (large crabgrass; [1]): 40
Plant response rating, Crabgrass, Large (large crabgrass; [2]): 65
Crabgrass, Large plant response rating (large crabgrass; [3]): 45
Crabgrass, Large plant response rating (large crabgrass; [14]): 75
Foxtail, Giant plant response rating (giant foxtail; [1]): 35
Plant response rating, Foxtail, Giant (giant foxtail; [2]): 55
Foxtail, Giant plant response rating (giant foxtail; [3]): 25
Foxtail, Giant plant response rating (giant foxtail; [14]): 60
Plant response rating, Cocklebur (cocklebur; [19]): 30
Plant response rating, Cocklebur (cocklebur; [5]): 90
Cocklebur plant response rating (cocklebur; [7]): 30
Plant response rating, Cocklebur (cocklebur; [8]): 20
Plant response rating, Lambsquarters (lambsquarters; [19]): 100
Plant response rating, Lambsquarters (lambsquarters; [5]): 90
Lambsquarters plant response rating (lambsquarters; [7]): 60
Plant response rating, Lambsquarters (lambsquarters; [8]): 90

CCn1nc(C(C)(C)C)cc1C(=O)Nc1cccc(OC(C)C)c1 [Compound 273]
Crabgrass, Large plant response rating (large crabgrass; [1]): 25
Plant response rating, Crabgrass, Large (large crabgrass; [2]): 65
Crabgrass, Large plant response rating (large crabgrass; [14]): 100
Crabgrass, Large plant response rating (large crabgrass; [15]): 75
Foxtail, Giant plant response rating (giant foxtail; [1]): 50
Plant response rating, Foxtail, Giant (giant foxtail; [2]): 70
Foxtail, Giant plant response rating (giant foxtail; [14]): 100
Foxtail, Giant plant response rating (giant foxtail; [15]): 85
Cocklebur plant response rating (0 to 100 scale) (cocklebur; [16]): 0
Plant response rating, Cocklebur (cocklebur; [17]): 0
Cocklebur plant response rating (cocklebur; [7]): 20
Cocklebur plant response rating (cocklebur; [18]): 80
Lambsquarters plant response rating (0 to 100 scale) (lambsquarters; [16]): 70
Plant response rating, Lambsquarters (lambsquarters; [17]): 100
Lambsquarters plant response rating (lambsquarters; [7]): 60
Lambsquarters plant response rating (lambsquarters; [18]): 90
